In ChEMBL document CHEMBL1153896, “Antiproliferative cardenolide glycosides of Elaeodendron alluaudianum from the Madagascar Rainforest” (Bioorg Med Chem, 2009):

Experiments:
Assay type in all cases: functional, cell-based
[1] = test system: U-937; experiment: Antiproliferative activity against human U937 cells after 96 hrs by celltiter-glo luminescent cell viability assay; conditions: U-937, 96 h
[2] = test system: A2780; experiment: Antiproliferative activity against human A2780 cells after 96 hrs by celltiter-glo luminescent cell viability assay; conditions: A2780, 96 h
[3] = Antiproliferative activity against HSG cells; conditions: Homo sapiens
[4] = test system: KB; experiment: Antiproliferative activity against human KB cells

Row | Structure (SMILES) | IC50 [1] | IC50 [2] | IC50 [3] | IC50 [4]
1 | C[C@H]1O[C@@H](O[C@H]2CC[C@]3(CO)[C@H]4[C@H](O)C[C@]5(C)[C@@H](C6=CC(=O)OC6)CC[C@]5(O)[C@@H]4CC[C@]3(O)C2)[C@H](O)[C@H](O)[C@@H]1O[C@@H]1O[C@H](CO)[C@@H](O)[C@@H](O)[C@H]1O [ELAEODENDROSIDE V] | 0.15 µM | 0.12 µM | – | –
2 | C[C@H]1O[C@@H](O[C@H]2[C@H](O)[C@H](O)[C@H](O[C@H]3CC[C@]4(C=O)[C@H]5[C@H](O)C[C@]6(C)[C@@H](C7=CC(=O)OC7)CC[C@]6(O)[C@@H]5CC[C@]4(O)C3)O[C@@H]2C)[C@@H](O)[C@@H](O)[C@@H]1O | – | – | 0.049 µM | –
3 | C[C@H]1O[C@@H](O[C@H]2CC[C@]3(C=O)[C@H]4[C@H](O)C[C@]5(C)[C@@H](C6=CC(=O)OC6)CC[C@]5(O)[C@@H]4CC[C@]3(O)C2)[C@H](O)[C@H](O)[C@@H]1O[C@@H]1O[C@H](CO)[C@@H](O)[C@@H](O)[C@H]1O [ELAEODENDROSIDE W] | 0.08 µM | 0.07 µM | – | –
4 | C[C@H]1O[C@@H](O[C@H]2CC[C@]3(C=O)[C@H]4[C@H](O)C[C@]5(C)[C@@H](C6=CC(=O)OC6)CC[C@]5(O)[C@@H]4CC[C@]3(O)C2)[C@H](O)[C@H](O)[C@H]1O | – | – | – | 0.074 µM
